{
  "source": "patent US11242327B2",
  "about": "“Analgesic compounds” (RECURIUM IP HOLDINGS, LLC, priority 2017, dated 2022)",
  "key": {"[1]": {"test_system": "male Sprague-Dawley rats", "assay": "Formalin Paw Test, rat, oral", "format": "in vivo", "conditions": "30 mg/kg", "outline": "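Paw licking recorded every 5 min for 35 min after formalin injection, in groups of 8 non-fasted males: Sprague-Dawley rats (200–225 g) dosed orally or ICR mice (23±3 g) dosed intraperitoneally. Scores are licking-time bins: A <70 s, B 70–165 s, C >165 s.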"}, "[2]": {"test_system": "male Sprague-Dawley rats", "assay": "UVB Inflammatory Pain Test (thermal hyperalgesia)", "format": "in vivo", "conditions": "rat, oral; for paw withdrawal latency, 1 h: 1 h after dosing; for paw withdrawal latency, 2 h: 2 h after dosing; for paw withdrawal latency, 4 h: 4 h after dosing", "outline": "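Left hind-paw plantar UVB (350 mJoules/cm^2) given on Day −3 to male Sprague-Dawley rats; on Day 0, test compounds dosed orally at 3, 10, 30 or 100 mg/kg, with water vehicle, celecoxib 30 mg/kg and acetaminophen 300 mg/kg. Radiant-heat paw withdrawal latency (mean of 3, 30 s cutoff) measured before dosing and about 1, 2 and 4 h after.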"}, "[3]": {"test_system": "male Sprague-Dawley rats", "assay": "Osteoarthritis Pain Test (MIA, mechanical hyperalgesia)", "format": "in vivo", "conditions": "rat; for joint compression threshold, Day 3, 1 h: Day 3, 1 h post-dosing; for joint compression threshold, Day 3, 2 h: Day 3, 2 h post-dosing; for joint compression threshold, Day 3, 4 h: Day 3, 4 h post-dosing; for joint compression threshold, Day 6, 1 h: Day 6, 1 h post-dosing; for joint compression threshold, Day 6, 2 h: Day 6, 2 h post-dosing; for joint compression threshold, Day 6, 4 h: Day 6, 4 h post-dosing; for joint compression threshold, Day 0, 1 h: Day 0, 1 h post-dosing; for joint compression threshold, Day 0, 2 h: Day 0, 2 h post-dosing; for joint compression threshold, Day 0, 4 h: Day 0, 4 h post-dosing", "experimental": "Osteoarthritis pain was induced in non-fasted male Sprague-Dawley rats weighing 150-250 g by injecting 2 mg of monosodium iodoacetate (MIA) into the left knee joint. Mechanical hyperalgesia was measured using a digital Randall-Selitto device (dRS; IITC Life Sciences©; Woodland Hills, Calif.). Animals were allowed to acclimate to the testing room for a minimum of 15 minutes before testing. Animals were placed in a restraint sling that suspended the animal, leaving the hind limbs available for testing. The stimulus was applied to the knee joint by a blunt tip and pressure was applied gradually over approximately 10 seconds. Joint compression threshold values were recorded at the first observed nocifensive behavior (vocalization, struggle, or withdrawal). One reading per joint was taken at each time point, and a maximum stimulus cutoff of 500 grams was used to prevent injury to the animal. Mechanical hyperalgesia was assessed prior to MIA injection, and again 14 days later. After 14 days, test or control articles were administered once daily for 7 days with mechanical hyperalgesia assessed prior to dosing, 1, 2, and 4 hours post-dosing on days 0, 3, and 6. Test compounds were administered orally at concentrations of 3, 10, 30 or 100 mg/kg and celecoxib was administered orally at a concentration of 30 mg/kg. The control group received the vehicle (sterile water). After day 0, groups receiving the 100 mg/kg dose were reduced to a dose of 3 mg/kg. In Table 5, ‘A’ designates ≥375 grams of joint compression, ‘B’ designates ≥325 and <375 grams of joint compression, and ‘C’ designates <325 grams of joint compression.\nThe results provided in Table 5 are for oral administration in rats."}, "[4]": {"biological_target": "Opiate δ2 (Homo sapiens, UniProt P41143)", "sequence (P41143 whole entry)": "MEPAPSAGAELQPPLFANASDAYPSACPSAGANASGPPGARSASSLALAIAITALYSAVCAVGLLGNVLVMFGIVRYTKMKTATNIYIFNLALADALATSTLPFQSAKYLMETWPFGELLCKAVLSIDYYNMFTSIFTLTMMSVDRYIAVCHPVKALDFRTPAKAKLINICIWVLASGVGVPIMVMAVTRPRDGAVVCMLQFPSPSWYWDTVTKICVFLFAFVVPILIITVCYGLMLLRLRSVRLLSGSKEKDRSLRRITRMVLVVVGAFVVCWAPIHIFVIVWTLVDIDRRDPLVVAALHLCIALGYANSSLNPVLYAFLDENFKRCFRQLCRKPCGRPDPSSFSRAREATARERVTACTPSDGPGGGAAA", "assay": "NSAIDS and Opioid Receptor Test: Opiate δ2", "format": "binding", "conditions": "10 μM", "experimental": "(§1) Compounds were screened as DMSO solutions at 10 μM, 100 μM, or 200 μM and values represent percent inhibition of control-specific binding. […] As NSAID and opioid mechanisms of action are precluded, a person of ordinary skill in the art understands that undesirable side effects associated with inhibition of COX receptors in NSAIDs and activation of opiate receptors in opioids can be avoided by compounds described herein. Furthermore, opioids are known to lose their analgesic potency after to continued administration. (See Benyamin, et al. “Opioid Complications and Side Effects” Pain Physician 11 (2008): S105-S120). As the data indicates compounds described herein have a different mechanism action compared to opioids, a person of ordinary skill in the art would appreciate that compounds described herein would not be expected to lose their analgesic potency like opioids after continued admininistration."}, "[5]": {"biological_target": "Opiate μ (Homo sapiens, UniProt P35372)", "sequence (P35372 whole entry)": "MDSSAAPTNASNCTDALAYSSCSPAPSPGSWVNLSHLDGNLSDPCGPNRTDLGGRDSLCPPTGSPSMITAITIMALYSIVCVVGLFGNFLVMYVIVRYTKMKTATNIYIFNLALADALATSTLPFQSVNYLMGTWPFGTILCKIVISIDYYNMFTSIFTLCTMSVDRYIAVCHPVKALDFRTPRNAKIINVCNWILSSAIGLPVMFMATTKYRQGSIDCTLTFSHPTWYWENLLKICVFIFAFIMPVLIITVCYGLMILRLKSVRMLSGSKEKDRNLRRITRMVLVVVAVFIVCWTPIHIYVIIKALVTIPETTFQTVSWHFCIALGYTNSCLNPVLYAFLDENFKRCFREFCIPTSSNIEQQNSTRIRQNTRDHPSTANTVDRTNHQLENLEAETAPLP", "assay": "NSAIDS and Opioid Receptor Test: Opiate μ", "format": "binding", "conditions": "10 μM", "experimental": "as §1"}, "[6]": {"conditions": "oral once daily, 3 mg/kg (group had 100 mg/kg on day 0)"}},
  "data": [
    {"compound": "Cc1sc(C23CC(N)(C2)C3)nc1C(F)(F)F.Cl", "note": "[Compound 2, 3-(5-Methyl-4-(trifluoromethyl)thiazol-2-yl)bicyclo[1.1.1]pentan-1-amine hydrochloride]", "values": [
      {"measurement": "Early Phase, seconds of paw licking", "setting": "[1]; early/acute phase (0-10 minutes)", "result": "A (<70 seconds of paw licking)"},
      {"measurement": "Late Phase, seconds of paw licking", "setting": "[1]; late/tonic phase (10-35 minutes)", "result": "A (<70 seconds of paw licking)"},
      {"measurement": "paw withdrawal latency, 1 h", "setting": "[2]; 3 mg/kg", "result": "A (>8 seconds of paw withdrawal latency)"},
      {"measurement": "paw withdrawal latency, 2 h", "setting": "[2]; 3 mg/kg", "result": "A (>8 seconds of paw withdrawal latency)"},
      {"measurement": "paw withdrawal latency, 4 h", "setting": "[2]; 3 mg/kg", "result": "A (>8 seconds of paw withdrawal latency)"},
      {"measurement": "paw withdrawal latency, 1 h", "setting": "[2]; 10 mg/kg", "result": "A (>8 seconds of paw withdrawal latency)"},
      {"measurement": "paw withdrawal latency, 2 h", "setting": "[2]; 10 mg/kg", "result": "B (>6 and <8 seconds of paw withdrawal latency)"},
      {"measurement": "paw withdrawal latency, 4 h", "setting": "[2]; 10 mg/kg", "result": "A (>8 seconds of paw withdrawal latency)"},
      {"measurement": "paw withdrawal latency, 1 h", "setting": "[2]; 30 mg/kg", "result": "A (>8 seconds of paw withdrawal latency)"},
      {"measurement": "paw withdrawal latency, 2 h", "setting": "[2]; 30 mg/kg", "result": "A (>8 seconds of paw withdrawal latency)"},
      {"measurement": "paw withdrawal latency, 4 h", "setting": "[2]; 30 mg/kg", "result": "B (>6 and <8 seconds of paw withdrawal latency)"},
      {"measurement": "paw withdrawal latency, 1 h", "setting": "[2]; 100 mg/kg", "result": "A (>8 seconds of paw withdrawal latency)"},
      {"measurement": "paw withdrawal latency, 2 h", "setting": "[2]; 100 mg/kg", "result": "A (>8 seconds of paw withdrawal latency)"},
      {"measurement": "paw withdrawal latency, 4 h", "setting": "[2]; 100 mg/kg", "result": "A (>8 seconds of paw withdrawal latency)"},
      {"measurement": "joint compression threshold, Day 3, 1 h", "setting": "[3]; [6]", "result": "A (≥375 grams of joint compression)"},
      {"measurement": "joint compression threshold, Day 3, 2 h", "setting": "[3]; [6]", "result": "A (≥375 grams of joint compression)"},
      {"measurement": "joint compression threshold, Day 3, 4 h", "setting": "[3]; [6]", "result": "A (≥375 grams of joint compression)"},
      {"measurement": "joint compression threshold, Day 6, 1 h", "setting": "[3]; [6]", "result": "B (≥325 and <375 grams of joint compression)"},
      {"measurement": "joint compression threshold, Day 6, 2 h", "setting": "[3]; [6]", "result": "B (≥325 and <375 grams of joint compression)"},
      {"measurement": "joint compression threshold, Day 6, 4 h", "setting": "[3]; [6]", "result": "B (≥325 and <375 grams of joint compression)"},
      {"measurement": "joint compression threshold, Day 0, 1 h", "setting": "[3]; oral once daily, 10 mg/kg", "result": "C (<325 grams of joint compression)"},
      {"measurement": "joint compression threshold, Day 0, 2 h", "setting": "[3]; oral once daily, 10 mg/kg", "result": "C (<325 grams of joint compression)"},
      {"measurement": "joint compression threshold, Day 0, 4 h", "setting": "[3]; oral once daily, 10 mg/kg", "result": "C (<325 grams of joint compression)"},
      {"measurement": "joint compression threshold, Day 3, 1 h", "setting": "[3]; oral once daily, 10 mg/kg", "result": "B (≥325 and <375 grams of joint compression)"},
      {"measurement": "joint compression threshold, Day 3, 2 h", "setting": "[3]; oral once daily, 10 mg/kg", "result": "A (≥375 grams of joint compression)"},
      {"measurement": "joint compression threshold, Day 3, 4 h", "setting": "[3]; oral once daily, 10 mg/kg", "result": "C (<325 grams of joint compression)"},
      {"measurement": "joint compression threshold, Day 6, 1 h", "setting": "[3]; oral once daily, 10 mg/kg", "result": "B (≥325 and <375 grams of joint compression)"},
      {"measurement": "joint compression threshold, Day 6, 2 h", "setting": "[3]; oral once daily, 10 mg/kg", "result": "B (≥325 and <375 grams of joint compression)"},
      {"measurement": "joint compression threshold, Day 6, 4 h", "setting": "[3]; oral once daily, 10 mg/kg", "result": "A (≥375 grams of joint compression)"},
      {"measurement": "joint compression threshold, Day 0, 1 h", "setting": "[3]; oral once daily, 30 mg/kg", "result": "B (≥325 and <375 grams of joint compression)"},
      {"measurement": "joint compression threshold, Day 0, 2 h", "setting": "[3]; oral once daily, 30 mg/kg", "result": "B (≥325 and <375 grams of joint compression)"},
      {"measurement": "joint compression threshold, Day 0, 4 h", "setting": "[3]; oral once daily, 30 mg/kg", "result": "B (≥325 and <375 grams of joint compression)"},
      {"measurement": "joint compression threshold, Day 3, 1 h", "setting": "[3]; oral once daily, 30 mg/kg", "result": "B (≥325 and <375 grams of joint compression)"},
      {"measurement": "joint compression threshold, Day 3, 2 h", "setting": "[3]; oral once daily, 30 mg/kg", "result": "B (≥325 and <375 grams of joint compression)"},
      {"measurement": "joint compression threshold, Day 3, 4 h", "setting": "[3]; oral once daily, 30 mg/kg", "result": "B (≥325 and <375 grams of joint compression)"},
      {"measurement": "joint compression threshold, Day 6, 1 h", "setting": "[3]; oral once daily, 30 mg/kg", "result": "B (≥325 and <375 grams of joint compression)"},
      {"measurement": "joint compression threshold, Day 6, 2 h", "setting": "[3]; oral once daily, 30 mg/kg", "result": "B (≥325 and <375 grams of joint compression)"},
      {"measurement": "joint compression threshold, Day 6, 4 h", "setting": "[3]; oral once daily, 30 mg/kg", "result": "A (≥375 grams of joint compression)"},
      {"measurement": "joint compression threshold, Day 0, 1 h", "setting": "[3]; oral, 100 mg/kg", "result": "A (≥375 grams of joint compression)"},
      {"measurement": "joint compression threshold, Day 0, 2 h", "setting": "[3]; oral, 100 mg/kg", "result": "A (≥375 grams of joint compression)"},
      {"measurement": "joint compression threshold, Day 0, 4 h", "setting": "[3]; oral, 100 mg/kg", "result": "A (≥375 grams of joint compression)"},
      {"measurement": "inhibition at 10 µM", "setting": "[4]", "result": 10, "unit": "%"},
      {"measurement": "inhibition at 10 µM", "setting": "[5]", "result": 9, "unit": "%"}
    ]}
  ]
}
